# From PubChem BioAssay (NCI)
#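 Compound exposure: 48 hours, 5 concentrations, 96-well plates. GI50 marks 50% less growth. TGI: concentration producing complete growth inhibition.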
# Assays:
# Experiment in all cases: NCI anticancer screen, dose series, 48 h
# A498 renal = test system: A498 renal
# A549 NSCLC = test system: A549 NSCLC
# CCRF-CEM leukemia = test system: CCRF-CEM leukemia
# HCT-116 colon = test system: HCT-116 colon
# HCT-15 colon = test system: HCT-15 colon
# K-562 leukemia = test system: K-562 leukemia
# MOLT-4 leukemia = test system: MOLT-4 leukemia
# OVCAR-4 ovarian = test system: OVCAR-4 ovarian
# SK-MEL-28 melanoma = test system: SK-MEL-28 melanoma
# TK-10 renal = test system: TK-10 renal
SMILES,GI50 (A498 renal),TGI (A498 renal),GI50 (A549 NSCLC),TGI (A549 NSCLC),GI50 (CCRF-CEM leukemia),TGI (CCRF-CEM leukemia),GI50 (HCT-116 colon),TGI (HCT-116 colon),GI50 (HCT-15 colon),TGI (HCT-15 colon),GI50 (K-562 leukemia),TGI (K-562 leukemia),GI50 (MOLT-4 leukemia),TGI (MOLT-4 leukemia),GI50 (OVCAR-4 ovarian),TGI (OVCAR-4 ovarian),GI50 (SK-MEL-28 melanoma),TGI (SK-MEL-28 melanoma),GI50 (TK-10 renal),TGI (TK-10 renal)
C=CCn1c(SCC(=O)Nc2ccc(C(=O)/C=C/c3cc(OC)c(OC)c(OC)c3)cc2)nnc1-c1ccc(OC)cc1,1.5 µM,2.91 µM,0.875 µM,4.83 µM,0.344 µM,> 100 µM,0.223 µM,0.52 µM,0.277 µM,1.26 µM,0.363 µM,> 100 µM,0.378 µM,> 100 µM,0.783 µM,10.5 µM,0.709 µM,73.8 µM,1.6 µM,6.18 µM
CCOC(=O)C(C)(c1c(C)[nH]c2ccccc12)c1c(C)[nH]c2ccccc12,,36.6 µM,,49.7 µM,,58 µM,,25 µM,,32.5 µM,,42.4 µM,,42.9 µM,,32 µM,,30.5 µM,,45.6 µM
O=C(NNc1cnccn1)c1nc2cc(F)ccc2n2cccc12,0.575 µM,2.67 µM,0.542 µM,> 100 µM,0.211 µM,> 100 µM,0.46 µM,> 100 µM,0.183 µM,> 100 µM,0.387 µM,> 100 µM,0.34 µM,> 100 µM,0.211 µM,0.964 µM,1.08 µM,> 100 µM,0.647 µM,> 100 µM
O=[N+]([O-])c1ccc(Sc2c3ccccc3nc3ccccc23)cn1,,> 100 µM,,> 100 µM,,8.3 µM,,11.9 µM,,28.8 µM,,6.66 µM,,6.62 µM,,75.9 µM,,58.4 µM,,28.6 µM
CC(=O)NC1CONC1=O (configuration not stated),,> 100 µM,,> 100 µM,,> 100 µM,,> 100 µM,,> 100 µM,,> 100 µM,,> 100 µM,,> 100 µM,,> 100 µM,,> 100 µM
C=C(C)[C@@H]1CC[C@]2(C)[C@H](CC[C@@H]3[C@@H]([C@@](C)(O)CCC=C(C)C)CC[C@]32C)[C@@]1(C)CCC(=O)O,29.5 µM,> 100 µM,23.3 µM,91.9 µM,18 µM,48.2 µM,15.4 µM,29.8 µM,15.4 µM,31 µM,18.5 µM,90.5 µM,15.4 µM,52.7 µM,16.3 µM,39 µM,16.3 µM,30.3 µM,40.6 µM,> 100 µM
COC(=O)C(=O)CC(=O)c1cccc(OC)c1,,> 100 µM,,> 100 µM,,> 100 µM,,> 100 µM,,> 100 µM,,> 100 µM,,> 100 µM,,> 100 µM,,> 100 µM,,> 100 µM
COc1cc(/C=C/C(=O)Oc2ccccc2)ccc1C(=O)O/C=C/c1ccccc1,,> 21.5 µM,,> 100 µM,,> 100 µM,,> 100 µM,,> 100 µM,,> 100 µM,,> 100 µM,,> 100 µM,,> 100 µM,,> 100 µM
N#Cc1c(-c2ccco2)cc(-c2ccc(N)cc2)[nH]c1=O,,> 100 µM,,> 100 µM,,> 100 µM,,> 100 µM,,> 100 µM,,> 100 µM,,> 100 µM,,> 100 µM,,> 100 µM,,> 100 µM
COc1cc2c3c(n(CCCN(CCO)CCO)c(=O)c2cc1OC)-c1cc2c(cc1C3=O)OCO2,< 0.01 µM,0.345 µM,0.155 µM,13 µM,< 0.01 µM,,< 0.01 µM,0.0679 µM,0.838 µM,20.7 µM,< 0.01 µM,,< 0.01 µM,< 0.01 µM,0.842 µM,3.61 µM,2.27 µM,26.6 µM,1.23 µM,6.02 µM
CCOC(=O)C1=C(N)Oc2c(sc3c(C)cccc23)C1c1ccc(F)cc1 (configuration not stated),0.211 µM,1.26 µM,0.804 µM,17.2 µM,0.559 µM,21.6 µM,0.429 µM,11.8 µM,0.415 µM,10.9 µM,0.375 µM,> 42.7 µM,1.88 µM,17.5 µM,3.33 µM,18.3 µM,8.71 µM,22.1 µM,13.2 µM,29.5 µM
CC(C)(C)c1cc(C(=O)/C=C/c2ccc(C(=O)O)cc2)cc(C(C)(C)C)c1,,3.52 µM,,13.4 µM,,9.48 µM,,10.4 µM,,4.12 µM,,> 100 µM,,8.31 µM,,19 µM,,6.83 µM,,11.9 µM
NC(N)=N/N=C(\N=Nc1ccccc1)c1ccc(Cl)cc1,9.53 µM,22.2 µM,4.25 µM,18.5 µM,1.76 µM,5.78 µM,1.7 µM,3.6 µM,3.02 µM,14.9 µM,1.2 µM,6.37 µM,2.35 µM,6.16 µM,1.79 µM,12.6 µM,1.98 µM,4.59 µM,3.18 µM,12 µM
Cn1cc(S(=O)(=O)N2CCC3=Cc4c(cnn4-c4ccc(F)cc4)C[C@]3(C(=O)c3cc(C(F)(F)F)ccn3)C2)cn1,4.64 µM,> 100 µM,39.7 µM,> 100 µM,> 100 µM,> 100 µM,11.1 µM,> 100 µM,> 100 µM,> 100 µM,> 100 µM,> 100 µM,> 100 µM,> 100 µM,> 100 µM,> 100 µM,> 100 µM,> 100 µM,> 100 µM,> 100 µM
NCCCn1c2c(c3ccccc3c1=O)C(=O)c1ccccc1-2,0.0481 µM,0.919 µM,0.0597 µM,0.815 µM,< 0.0462 µM,0.375 µM,0.259 µM,,0.0762 µM,1.38 µM,0.0857 µM,10.4 µM,0.0363 µM,0.7 µM,0.785 µM,9.82 µM,0.842 µM,3.03 µM,0.425 µM,4.19 µM
